# Test results: US20070225351A1, “Methods and compositions for controlling body weight and appetite” (priority 2002, published 2007)
# Test: in vivo
# Assay type: in vivo
# Protocol: Eighteen male and eighteen female beagle dogs were received from Ridglan Farms, Mt. Horeb, Wis. […] Each group consisted of four males and four females. All animals/sex/group were scheduled for the primary necropsy at the end of the 13-week treatment period.
# The animals were observed twice daily for mortality and moribundity. Clinical examinations were performed daily at the time of dosing and approximately 1-2 and approximately 3 hours following dose administration. Detailed physical examinations were performed weekly. Clinical pathology evaluations (hematology, serum chemistry and urinalysis) were performed prior to the initiation of dose administration (study week-1) and prior to the scheduled necropsy (study week 13). Individual body weights were recorded weekly, beginning approximately two weeks prior to test article administration (study week-2). Mean body weights and mean body weight changes were calculated for each corresponding interval. Final body weights (fasted) were recorded prior to the scheduled necropsy. […] Gross lesions were also examined from the 2.0 and 6.0 mg/kg/day groups.
smiles,measurement,setting,value
"Cl.Clc1ccc([C@@]23CNC[C@@H]2C3)cc1Cl (single isomer, unassigned) [(+)-1-(3,4-dichlorophenyl)-3-azabicyclo[3.1.0]hexane hydrochloride]","weekly food consumption, MEAN","female dogs, 2.0 MG/KG/DAY, WEEK 9 TO 10",375. C/ANIMAL/DAY
same,"weekly food consumption, MEAN","female dogs, 2.0 MG/KG/DAY, WEEK 10 TO 11",389. C/ANIMAL/DAY
same,"weekly food consumption, MEAN","female dogs, 2.0 MG/KG/DAY, WEEK 12 TO 13",355. C/ANIMAL/DAY
same,"weekly food consumption, MEAN","female dogs, 6.0 MG/KG/DAY group, WEEK −1 TO 0 (before dosing)",275. C/ANIMAL/DAY
same,"weekly food consumption, MEAN","female dogs, 6.0 MG/KG/DAY, WEEK 0 TO 1",247. C/ANIMAL/DAY
same,"weekly food consumption, MEAN","female dogs, 6.0 MG/KG/DAY, WEEK 1 TO 2",288. C/ANIMAL/DAY
same,"weekly food consumption, MEAN","female dogs, 6.0 MG/KG/DAY, WEEK 2 TO 3",307. C/ANIMAL/DAY
same,"weekly food consumption, MEAN","female dogs, 6.0 MG/KG/DAY, WEEK 3 TO 4",307. C/ANIMAL/DAY
same,"weekly food consumption, MEAN","female dogs, 6.0 MG/KG/DAY, WEEK 4 TO 5",350. C/ANIMAL/DAY
same,"weekly food consumption, MEAN","female dogs, 6.0 MG/KG/DAY, WEEK 5 TO 6",374. C/ANIMAL/DAY
same,"weekly food consumption, MEAN","female dogs, 6.0 MG/KG/DAY, WEEK 6 TO 7",381. C/ANIMAL/DAY
same,"weekly food consumption, MEAN","female dogs, 6.0 MG/KG/DAY, WEEK 7 TO 8",356. C/ANIMAL/DAY
same,"weekly food consumption, MEAN","female dogs, 6.0 MG/KG/DAY, WEEK 8 TO 9",368. C/ANIMAL/DAY
same,"weekly food consumption, MEAN","female dogs, 6.0 MG/KG/DAY, WEEK 9 TO 10",360. C/ANIMAL/DAY
same,"weekly food consumption, MEAN","female dogs, 6.0 MG/KG/DAY, WEEK 10 TO 11",367. C/ANIMAL/DAY
same,"weekly food consumption, MEAN","female dogs, 6.0 MG/KG/DAY, WEEK 11 TO 12",357. C/ANIMAL/DAY
same,"weekly food consumption, MEAN","female dogs, 6.0 MG/KG/DAY, WEEK 12 TO 13",331. C/ANIMAL/DAY
same,"weekly food consumption, MEAN","female dogs, 20 MG/KG/DAY group, WEEK −1 TO 0 (before dosing)",275. C/ANIMAL/DAY
same,"weekly food consumption, MEAN","female dogs, 20 MG/KG/DAY, WEEK 0 TO 1",212.* C/ANIMAL/DAY
same,"weekly food consumption, MEAN","female dogs, 20 MG/KG/DAY, WEEK 1 TO 2",295. C/ANIMAL/DAY
same,"weekly food consumption, MEAN","female dogs, 20 MG/KG/DAY, WEEK 2 TO 3",314. C/ANIMAL/DAY
same,"weekly food consumption, MEAN","female dogs, 20 MG/KG/DAY, WEEK 3 TO 4",337. C/ANIMAL/DAY
same,"weekly food consumption, MEAN","female dogs, 20 MG/KG/DAY, WEEK 4 TO 5",356. C/ANIMAL/DAY
same,"weekly food consumption, MEAN","female dogs, 20 MG/KG/DAY, WEEK 5 TO 6",331. C/ANIMAL/DAY
same,"weekly food consumption, MEAN","female dogs, 20 MG/KG/DAY, WEEK 6 TO 7",328. C/ANIMAL/DAY
same,"weekly food consumption, MEAN","female dogs, 20 MG/KG/DAY, WEEK 7 TO 8",325. C/ANIMAL/DAY
same,"weekly food consumption, MEAN","female dogs, 20 MG/KG/DAY, WEEK 8 TO 9",375. C/ANIMAL/DAY
same,"weekly food consumption, MEAN","female dogs, 20 MG/KG/DAY, WEEK 9 TO 10",322. C/ANIMAL/DAY
same,"weekly food consumption, MEAN","female dogs, 20 MG/KG/DAY, WEEK 10 TO 11",350. C/ANIMAL/DAY
same,"weekly food consumption, MEAN","female dogs, 20 MG/KG/DAY, WEEK 11 TO 12",305. C/ANIMAL/DAY
same,"weekly food consumption, MEAN","female dogs, 20 MG/KG/DAY, WEEK 12 TO 13",249. C/ANIMAL/DAY
same,"mean total cumulative body weight change, lower than control","male dogs, 20 mg/kg/day, end of 13-week study (body weight loss)",120%
same,"mean food consumption, lower than control","male dogs, 20 mg/kg/day, first week of dose administration",33%
same,"food consumption, less than control values","male dogs, 20 mg/kg/day, generally, throughout the study",at least 10%
same,"mean body weight, lower than control","male dogs, 20 mg/kg/day, study week 13",13%
same,"mean food consumption, lower than control","male dogs, 20 mg/kg/day, study weeks 6 to 13 except week 8 to 9, not statistically significant",at least 10%
same,"weekly food consumption, MEAN","male dogs, 2.0 MG/KG/DAY group, WEEK −1 TO 0 (before dosing)",339. C/ANIMAL/DAY
same,"weekly food consumption, MEAN","male dogs, 2.0 MG/KG/DAY, WEEK 0 TO 1",320. C/ANIMAL/DAY
same,"weekly food consumption, MEAN","male dogs, 2.0 MG/KG/DAY, WEEK 1 TO 2",354. C/ANIMAL/DAY
same,"weekly food consumption, MEAN","male dogs, 2.0 MG/KG/DAY, WEEK 2 TO 3",373. C/ANIMAL/DAY
same,"weekly food consumption, MEAN","male dogs, 2.0 MG/KG/DAY, WEEK 3 TO 4",366. C/ANIMAL/DAY
same,"weekly food consumption, MEAN","male dogs, 2.0 MG/KG/DAY, WEEK 4 TO 5",369. C/ANIMAL/DAY
same,"weekly food consumption, MEAN","male dogs, 2.0 MG/KG/DAY, WEEK 5 TO 6",360. C/ANIMAL/DAY
same,"weekly food consumption, MEAN","male dogs, 2.0 MG/KG/DAY, WEEK 6 TO 7",393. C/ANIMAL/DAY
same,"weekly food consumption, MEAN","male dogs, 2.0 MG/KG/DAY, WEEK 7 TO 8",360. C/ANIMAL/DAY
same,"weekly food consumption, MEAN","male dogs, 2.0 MG/KG/DAY, WEEK 8 TO 9",388. C/ANIMAL/DAY
same,"weekly food consumption, MEAN","male dogs, 2.0 MG/KG/DAY, WEEK 9 TO 10",375. C/ANIMAL/DAY
same,"weekly food consumption, MEAN","male dogs, 2.0 MG/KG/DAY, WEEK 10 TO 11",389. C/ANIMAL/DAY
same,"weekly food consumption, MEAN","male dogs, 2.0 MG/KG/DAY, WEEK 12 TO 13",355. C/ANIMAL/DAY
same,"weekly food consumption, MEAN","male dogs, 6.0 MG/KG/DAY group, WEEK −1 TO 0 (before dosing)",331. C/ANIMAL/DAY
same,"weekly food consumption, MEAN","male dogs, 6.0 MG/KG/DAY, WEEK 0 TO 1",351. C/ANIMAL/DAY
same,"weekly food consumption, MEAN","male dogs, 6.0 MG/KG/DAY, WEEK 1 TO 2",370. C/ANIMAL/DAY
same,"weekly food consumption, MEAN","male dogs, 6.0 MG/KG/DAY, WEEK 3 TO 4",380. C/ANIMAL/DAY
same,"weekly food consumption, MEAN","male dogs, 6.0 MG/KG/DAY, WEEK 4 TO 5",350. C/ANIMAL/DAY
same,"weekly food consumption, MEAN","male dogs, 6.0 MG/KG/DAY, WEEK 5 TO 6",374. C/ANIMAL/DAY
same,"weekly food consumption, MEAN","male dogs, 6.0 MG/KG/DAY, WEEK 6 TO 7",381. C/ANIMAL/DAY
same,"weekly food consumption, MEAN","male dogs, 6.0 MG/KG/DAY, WEEK 7 TO 8",356. C/ANIMAL/DAY
same,"weekly food consumption, MEAN","male dogs, 6.0 MG/KG/DAY, WEEK 8 TO 9",368. C/ANIMAL/DAY
same,"weekly food consumption, MEAN","male dogs, 6.0 MG/KG/DAY, WEEK 9 TO 10",360. C/ANIMAL/DAY
same,"weekly food consumption, MEAN","male dogs, 6.0 MG/KG/DAY, WEEK 10 TO 11",367. C/ANIMAL/DAY
same,"weekly food consumption, MEAN","male dogs, 6.0 MG/KG/DAY, WEEK 11 TO 12",357. C/ANIMAL/DAY
same,"weekly food consumption, MEAN","male dogs, 6.0 MG/KG/DAY, WEEK 12 TO 13",331. C/ANIMAL/DAY
same,"weekly food consumption, MEAN","male dogs, 20 MG/KG/DAY group, WEEK −1 TO 0 (before dosing)",337. C/ANIMAL/DAY
same,"weekly food consumption, MEAN","male dogs, 20 MG/KG/DAY, WEEK 0 TO 1",228.* C/ANIMAL/DAY
same,"weekly food consumption, MEAN","male dogs, 20 MG/KG/DAY, WEEK 1 TO 2",319. C/ANIMAL/DAY
same,"weekly food consumption, MEAN","male dogs, 20 MG/KG/DAY, WEEK 2 TO 3",326. C/ANIMAL/DAY
same,"weekly food consumption, MEAN","male dogs, 20 MG/KG/DAY, WEEK 3 TO 4",357. C/ANIMAL/DAY
same,"weekly food consumption, MEAN","male dogs, 20 MG/KG/DAY, WEEK 4 TO 5",356. C/ANIMAL/DAY
same,"weekly food consumption, MEAN","male dogs, 20 MG/KG/DAY, WEEK 5 TO 6",331. C/ANIMAL/DAY
same,"weekly food consumption, MEAN","male dogs, 20 MG/KG/DAY, WEEK 6 TO 7",328. C/ANIMAL/DAY
same,"weekly food consumption, MEAN","male dogs, 20 MG/KG/DAY, WEEK 7 TO 8",325. C/ANIMAL/DAY
same,"weekly food consumption, MEAN","male dogs, 20 MG/KG/DAY, WEEK 8 TO 9",375. C/ANIMAL/DAY
same,"weekly food consumption, MEAN","male dogs, 20 MG/KG/DAY, WEEK 9 TO 10",322. C/ANIMAL/DAY
same,"weekly food consumption, MEAN","male dogs, 20 MG/KG/DAY, WEEK 10 TO 11",350. C/ANIMAL/DAY
same,"weekly food consumption, MEAN","male dogs, 20 MG/KG/DAY, WEEK 11 TO 12",305. C/ANIMAL/DAY
same,"weekly food consumption, MEAN","male dogs, 20 MG/KG/DAY, WEEK 12 TO 13",249. C/ANIMAL/DAY
